Assay results taken from US20100122362A1, “CELLS EXPRESSING ALPHA-SYNUCLEIN AND USES THEREFOR” (priority 2006, published 2010).

What was measured:
TS217 cells [1] = tested on: TS217 cells
Experimental: To determine the effect of overexpression of wild-type alpha-synuclein on cell viability using the stable, inducible system, TS217 cells were treated with 0.1 μg/mL tetracycline for three to six days to induce expression of alpha-synuclein. The relative viability of the cells was assessed at one day intervals (day 3, day 4, day 5, and day 6) by measuring the cellular ATP level in cell lysates using a ViaLight® Plus Bioassay kit (Cambrex, Rockland, Me.). Relative cell viability was calculated as the ratio of induced cells to control cells (cells not treated with tetracycline), as an indication of alpha-synuclein-induced cytotoxicity (see FIG. 3).
To determine whether the effect of tetracycline on cell viability was concentration-dependent, TS217 cells grown in 96 well plates were incubated with different concentrations of tetracycline for six days. Following treatment, each of the experimental cell groups were lysed and the cellular ATP measured as described above. Media with the vehicle alone (no tetracycline) served as control (FIG. 5). […]

TS217 cells [2] = experiment: Calcein AM staining of live cells; format: cell-based; conditions: Homo sapiens, 120 h; 0.1 μg/mL tetracycline, 5 days; read-out: number of viable cells decreased (calcein-positive cells)
Experimental: The cytotoxicity of alpha-synuclein overexpression in TS217 cells was also assessed using the membrane-permeable dye, calcein AM. TS217 cells were plated on glass tissue culture chamber slides coated with poly-L-lysine and cultured in the absence (Control) or presence (Induced) of 0.1 μg/mL tetracycline for 5 days to induce alpha-synuclein expression. Cells were treated with 2 μM calcein AM and the fluorescence of enzyme-activated calcein AM (in live cells) was visualized using a fluorescent microscope (Olympus, Center Valley, Pa.) fitted with a digital camera controlled by the Metamorph program (Universal Imaging, West Chester, Pa.). Calcein-positive cells were quantitated using Metamorph software (Universal Imaging, West Chester, Pa.) (FIG. 4A).

TS217 cells [3] = experiment: GM130 immunostaining of intact Golgi; format: cell-based, human; conditions: 0.1 μg/mL tetracycline, six day induction
Experimental: TS217 cells were plated on glass tissue culture chamber slides coated with poly-L-lysine and incubated for six days in the absence (Control) or presence of 0.1 μg/mL tetracycline (Induced) to induce alpha-synuclein expression. Following treatment, cells were fixed with 4% paraformaldehyde supplemented with 4% sucrose in phosphate-buffered saline, permeabilized with 0.2% triton in PBS, and stained with antibodies specific for the cis-Golgi tethering protein GM130 (FIG. 6A). The number of cells containing intact Golgi was reduced by almost 80% following the six day induction of alpha-synuclein (FIG. 6B).

CC(C)(C)n1nc(-c2ccc(Cl)cc2)c2c(N)ncnc21 [Cmp J, 1-t-Butyl-3-(4-chloro-phenyl)-1H-pyrazolo[3,4-d]pyrimidin-4-ylamine]
Relative viability (ATP, ratio of induced to control), effect on alpha-synuclein-induced toxicity (TS217 cells [1]; 0.08, 0.15, 0.3 μM compound, with tetracycline induction for 5 days, FIG. 9): rescue of alpha-synuclein-induced toxicity

CN(C)[C@@H]1C(O)=C(C(N)=O)C(=O)[C@@]2(O)C(O)=C3C(=O)c4c(O)cccc4[C@@](C)(O)[C@H]3C[C@@H]12 [tetracycline]
cytotoxicity at 0.1 µg/mL (TS217 cells [2]): ~60% | Relative cell viability decreased (ratio of induced cells to control cells) (TS217 cells [1]; 0.1 μg/mL tetracycline, from day 3 to day 6, no other toxicity-inducing agents): over 50% | number of cells containing intact Golgi reduced (TS217 cells [3]): ~80%
